From patent US11905280B1, “2-(benzo[d]oxazol-2-yl)-N'-(picolinoyloxy)acetimidamide as an antimicrobial compound” (KING FAISAL UNIVERSITY, priority 2023, dated 2024) come the findings set out here.

One series relates to Bacillus cereus. Nature of the series: Agar plate disc-diffusion antibacterial test. Particulars: nutrient agar, 37° C., 48 hours. It is filed as cell-based. Here is the method: (§1) The agar plate disc-diffusion method was applied. Sterilized filter papers (6 mm in diameter) were wetted with 10 μL of a solution of 2-(benzo[d]oxazol-2-yl)-N′-(picolinoyloxy)acetimidamide (3) to be tested, containing 10 mg/mL in DMSO, and the discs were allowed to air dry. The discs were then placed onto the surface of agar plates (nutrient agar for bacteria and Sabouraud's dextrose agar for fungi) seeded with the test organism. Each plate contained 15 mL of the agar medium, previously seeded with 0.2 mL of the broth culture of each organism pregrown for 18 hours. The plates were incubated at 37° C. for 48 hours, and 72 hours for fungi. The inhibition zones was measured in mm. Discs impregnated with DMSO were used as a control, and its inhibition zone was subtracted from the tested compound actual inhibition zone.
A general note: Agar diffusion results depend on both activity and mobility in agar.

The next series deals with Staphylococcus aureus. Nature of the series: Agar plate disc-diffusion antibacterial test. In kind it is cell-based. As to conditions: nutrient agar, 37° C., 48 hours. On the procedure:
as §1

In another series the test system is Escherichia coli. Nature of the series: Agar plate disc-diffusion antibacterial test. It is filed as cell-based. Particulars: nutrient agar, 37° C., 48 hours. Here is the method: as §1
The next series relates to Pseudomonas aeruginosa. The series is described as follows: Agar plate disc-diffusion antibacterial test. It is filed as cell-based. Particulars: nutrient agar, 37° C., 48 hours. Here is the method: as §1
Series [1] relates to Chrysosporium keratinophilum. Nature of the series: Agar plate disc-diffusion antifungal test. It is filed as cell-based. Particulars: Sabouraud's dextrose agar, 72 hours. On the procedure:
as §1

The subject of a further series is Aspergillus flavus. The series is described as follows: Agar plate disc-diffusion antifungal test. It is filed as cell-based. Particulars: Sabouraud's dextrose agar, 72 hours. Here is the method: as §1
[2] abbreviates: A = concentration of comp. = 10,000 μL.
[3] abbreviates: B = concentration of comp. = 30,000 μL.
Where [4] appears, read: C = concentration of comp. = 50,000 μL.

As to `N/C(Cc1nc2ccccc2o1)=N\OC(=O)c1ccccn1` [Compound 3, 2-(benzo[d]oxazol-2-yl)-N′-(picolinoyloxy)acetimidamide], the melting point (commonly the temperature of the solid-liquid transition) was 156 to 158 °C. Also, the “inhibition zone, Bacillus Cereus, A” value with Bacillus cereus (setting [2]) was 25 mm. In addition, the “inhibition zone, Bacillus Cereus, B” value in the series with Bacillus cereus (setting [3]) was determined as 27 mm. For the same compound, the “inhibition zone, Bacillus Cereus, C” value with Bacillus cereus (setting [4]) stood at 39 mm. Moreover, the “inhibition zone, Staphylococcus aureus, A” value in the series on Staphylococcus aureus (setting [2]) is reported as 15 mm. In the series with Staphylococcus aureus (setting [3]), the “inhibition zone, Staphylococcus aureus, B” value amounted to 20 mm. In the series with Staphylococcus aureus (setting [4]), the “inhibition zone, Staphylococcus aureus, C” value amounted to 28 mm. Besides, the “inhibition zone, Escherichia coli, A” value in the series with Escherichia coli (setting [2]) stood at 29 mm. Moreover, the “inhibition zone, Escherichia coli, B” value in the series on Escherichia coli (setting [3]) amounted to 37 mm. For the same compound, the “inhibition zone, Escherichia coli, C” value with Escherichia coli (setting [4]) is on record as 53 mm. The “inhibition zone, Pseudomonas aeruginosa, A” value in the series on Pseudomonas aeruginosa (setting [2]) is 25 mm. In the series on Pseudomonas aeruginosa (setting [3]), the “inhibition zone, Pseudomonas aeruginosa, B” value came to 31 mm. Further, the “inhibition zone, Pseudomonas aeruginosa, C” value with Pseudomonas aeruginosa (setting [4]) was 45 mm. Moreover, the “inhibition zone, Chrysosporium keratinophilum, A” value in series [1] (setting [2]) was found to be 23 mm. The “inhibition zone, Chrysosporium keratinophilum, B” value in series [1] (setting [3]) stood at 29 mm. In addition, the “inhibition zone, Chrysosporium keratinophilum, C” value in series [1] (setting [4]) turned out to be 48 mm. Besides, the “inhibition zone, Aspergillus flavus, A” value in the series on Aspergillus flavus (setting [2]) was 24 mm. Further, the “inhibition zone, Aspergillus flavus, B” value with Aspergillus flavus (setting [3]) stood at 27 mm. In addition, in the series with Aspergillus flavus (setting [4]), the “inhibition zone, Aspergillus flavus, C” value is listed as 38 mm.
